Where two headings read alike, the source gives them in different places.
What was measured:
Experiment in all cases: Test B pre-/postemergence plant response
Type in all cases: in vivo
[1] = test system: soybean (Glycine max); conditions: Preemergence
From the text: (§1) Seeds of plant species selected from blackgrass (Alopecurus myosuroides), downy bromegrass (Bromus tectorum), green foxtail (Setaria viridis), Italian ryegrass (Lolium multiflorum), wheat (Triticum aestivum), wild oat (Avena fatua), deadnettle (henbit deadnettle, Lamium amplexicaule), galium (catchweed bedstraw, Galium aparine), bermudagrass (Cynodon dactylon), Surinam grass (Brachiaria decumbens), cocklebur (Xanthium strumarium), corn (Zea mays), large crabgrass (Digitaria sanguinalis), woolly cupgrass (Eriochloa villosa), giant foxtail (Setaria faberii), goosegrass (Eleusine indica), johnsongrass (Sorghum halepense), kochia (Kochia scoparia), lambsquarters (Chenopodium album), morningglory (Ipomoea coccinea), nightshade (eastern black nightshade, Solanum ptycanthum), yellow nutsedge (Cyperus esculentus), pigweed (Amaranthus retroflexus), ragweed (common ragweed, Ambrosia elatior), Russian thistle (Salsola kali), soybean (Glycine max), sunflower (common oilseed sunflower, Helianthus annuus) and velvetleaf (Abutilon theophrasti) were planted into a blend of loam soil and sand and treated preemergence with test compounds formulated in a non-phytotoxic solvent mixture which included a surfactant.
(§2) At the same time, plants selected from these crop and weed species and also winter barley (Hordeum vulgare), canarygrass (Phalaris minor), chickweed (Stellaria media) and windgrass (Apera spica-venti) were planted in pots containing Redi-Earth® planting medium (Scotts Company, 14111 Scottslawn Road, Marysville, Ohio 43041) comprising spaghnum peat moss, vermiculite, wetting agent and starter nutrients and treated with postemergence applications of some of the test chemicals formulated in the same manner. Plants ranged in height from 2 to 18 cm (1- to 4-leaf stage) for postemergence treatments.
(§3) Treated plants and controls were maintained in a greenhouse for 13 to 15 days, after which time all treated plants were visually evaluated and compared to controls. Plant response ratings, summarized in Table B, are based on a scale of 0 to 100 where 0 is no effect and 100 is complete control. A dash (-) response means no test result.

[2] = test system: downy bromegrass (Bromus tectorum); conditions: for pest or weed control at 16 g/ha: 16 g ai/ha; for pest or weed control at 16 g/ha / pest or weed control at 31 g/ha / pest or weed control at 62 g/ha: read-out: Plant response rating, Bromegrass, Downy; for pest or weed control at 31 g/ha: 31 g ai/ha; for pest or weed control at 62 g/ha: 62 g ai/ha
From the text: as §1, §2, §3

[3] = test system: cocklebur (Xanthium strumarium); conditions: for pest or weed control at 16 g/ha: 16 g ai/ha; for pest or weed control at 16 g/ha / pest or weed control at 31 g/ha / pest or weed control at 62 g/ha: read-out: Plant response rating, Cocklebur; for pest or weed control at 31 g/ha: 31 g ai/ha; for pest or weed control at 62 g/ha: 62 g ai/ha
From the text: as §1, §2, §3

[4] = test system: velvetleaf (Abutilon theophrasti); conditions: for pest or weed control at 31 g/ha: 31 g ai/ha; for pest or weed control at 31 g/ha / pest or weed control at 62 g/ha: read-out: Plant response rating, Velvetleaf; for pest or weed control at 62 g/ha: 62 g ai/ha
From the text: as §1, §2, §3

[5] = test system: blackgrass (Alopecurus myosuroides); conditions: for pest or weed control at 16 g/ha: 16 g ai/ha; for pest or weed control at 16 g/ha / pest or weed control at 31 g/ha / pest or weed control at 62 g/ha: read-out: Plant response rating, Blackgrass; for pest or weed control at 31 g/ha: 31 g ai/ha; for pest or weed control at 62 g/ha: 62 g ai/ha
From the text: as §1, §2, §3

[6] = Bromus tectorum, pre-emergence, Preemergence, scale 0 to 100 (0 no effect, 100 complete control)
[7] = Preemergence, 125 g ai/ha, 0 to 100 scale
[8] = Xanthium strumarium, pre-emergence, Preemergence, scale 0 to 100 (0 no effect, 100 complete control)
[9] = Abutilon theophrasti, pre-emergence, 360 h, Preemergence, scale 0 to 100 (0 no effect, 100 complete control)
[10] = Alopecurus myosuroides, pre-emergence, 360 h, Preemergence, scale 0 to 100 (0 no effect, 100 complete control)

**Q.** O=C1CCCC(O)=C1C(=O)c1cnc(-c2ccccc2)n(-c2ccccc2)c1=O [Compound 2, 5-[(2-hydroxy-6-oxo-1-cyclohexen-1-yl)carbonyl]-2,3-diphenyl-4(3H)-pyrimidinone] was tested. Which plant injury at 31 g/ha ([1]; Glycine max, pre-emergence, 31 g ai/ha, scale 0 to 100 (0 no effect, 100 complete control), read-out: Plant response rating, Soybean) did it give?
**A.** 15%

**Q.** What about the plant injury at 62 g/ha ([1]; Glycine max, pre-emergence, 62 g ai/ha, scale 0 to 100, 0 no effect, 100 complete control, read-out: Plant response rating, Soybean) of the same molecule?
**A.** 60%

**Q.** What about the “Soybean plant response rating” value ([1]; 125 g ai/ha, 0 to 100 scale) of the same molecule?
**A.** 70

**Q.** And the pest or weed control at 16 g/ha ([2]; Bromus tectorum, post-emergence, Postemergence, 0 to 100 scale)?
**A.** 20%

**Q.** And the pest or weed control at 31 g/ha ([2]; Bromus tectorum, post-emergence, Postemergence, scale 0 to 100 (0 no effect, 100 complete control))?
**A.** 35%

**Q.** And the pest or weed control at 62 g/ha ([2]; Bromus tectorum, post-emergence, Postemergence, scale 0 (no effect) to 100 (complete control), 13 to 15 days)?
**A.** 60%

**Q.** What about the pest or weed control at 125 g/ha ([2]; Bromus tectorum, post-emergence, Postemergence, 125 g ai/ha, visual rating after 13 to 15 days, scale 0 (no effect) to 100 (complete control)) of the same molecule?
**A.** 80%

**Q.** What about the pest or weed control at 16 g/ha [2, 6] of the same molecule?
**A.** 0%

**Q.** What about the pest or weed control at 31 g/ha [2, 6] of the same molecule?
**A.** 0%

**Q.** What about the pest or weed control at 62 g/ha ([2]; Bromus tectorum, pre-emergence, Preemergence, scale 0 to 100, 0 no effect, 100 complete control) of the same molecule?
**A.** 0%

**Q.** What about the “Bromegrass, Downy plant response rating” value [2, 7] of the same molecule?
**A.** 5

**Q.** What about the “Cocklebur plant response rating” value [3, 7] of the same molecule?
**A.** 80

**Q.** What about the pest or weed control at 16 g/ha ([3]; Xanthium strumarium, post-emergence, Postemergence, 0 to 100 scale) of the same molecule?
**A.** 75%

**Q.** And the pest or weed control at 31 g/ha ([3]; Xanthium strumarium, post-emergence, Postemergence, scale 0 to 100 (0 no effect, 100 complete control))?
**A.** 80%

**Q.** And the pest or weed control at 62 g/ha ([3]; Xanthium strumarium, post-emergence, Postemergence, scale 0 (no effect) to 100 (complete control), 13 to 15 days)?
**A.** 90%

**Q.** What about the pest or weed control at 125 g/ha ([3]; Xanthium strumarium, post-emergence, Postemergence, 125 g ai/ha, visual rating after 13 to 15 days, scale 0 (no effect) to 100 (complete control)) of the same molecule?
**A.** 95%

**Q.** And the pest or weed control at 16 g/ha [3, 8]?
**A.** 0%

**Q.** And the pest or weed control at 31 g/ha [3, 8]?
**A.** 0%

**Q.** And the pest or weed control at 62 g/ha ([3]; Xanthium strumarium, pre-emergence, Preemergence, scale 0 to 100, 0 no effect, 100 complete control)?
**A.** 65%

**Q.** And the pest or weed control at 31 g/ha ([4]; Abutilon theophrasti, post-emergence, 360 h, Postemergence, scale 0 to 100 (0 no effect, 100 complete control))?
**A.** 85%

**Q.** And the pest or weed control at 62 g/ha ([4]; Abutilon theophrasti, post-emergence, 360 h, Postemergence, scale 0 (no effect) to 100 (complete control), 13 to 15 days)?
**A.** 85%

**Q.** What about the pest or weed control at 125 g/ha ([4]; Abutilon theophrasti, post-emergence, 360 h, Postemergence, 125 g ai/ha, visual rating after 13 to 15 days, scale 0 (no effect) to 100 (complete control)) of the same molecule?
**A.** 90%

**Q.** What about the pest or weed control at 31 g/ha [4, 9] of the same molecule?
**A.** 75%

**Q.** And the pest or weed control at 62 g/ha [4, 9]?
**A.** 90%

**Q.** What about the “Velvetleaf plant response rating” value [4, 7] of the same molecule?
**A.** 100

**Q.** What about the pest or weed control at 16 g/ha ([5]; Alopecurus myosuroides, post-emergence, 360 h, Postemergence, 0 to 100 scale) of the same molecule?
**A.** 0%

**Q.** What about the pest or weed control at 31 g/ha ([5]; Alopecurus myosuroides, post-emergence, 360 h, Postemergence, scale 0 to 100 (0 no effect, 100 complete control)) of the same molecule?
**A.** 10%

**Q.** What about the pest or weed control at 62 g/ha ([5]; Alopecurus myosuroides, post-emergence, 360 h, Postemergence, scale 0 (no effect) to 100 (complete control), 13 to 15 days) of the same molecule?
**A.** 30%

**Q.** And the pest or weed control at 125 g/ha ([5]; Alopecurus myosuroides, post-emergence, 360 h, Postemergence, 125 g ai/ha, visual rating after 13 to 15 days, scale 0 (no effect) to 100 (complete control))?
**A.** 45%

**Q.** What about the pest or weed control at 16 g/ha [5, 10] of the same molecule?
**A.** 0%

**Q.** What about the pest or weed control at 31 g/ha [5, 10] of the same molecule?
**A.** 0%

**Q.** And the pest or weed control at 62 g/ha ([5]; Alopecurus myosuroides, pre-emergence, 360 h, Preemergence, scale 0 to 100, 0 no effect, 100 complete control)?
**A.** 0%

**Q.** What about the “Blackgrass plant response rating” value [5, 7] of the same molecule?
**A.** 50

— patent US8952024B2, “Herbicidal pyrimidone derivatives” (E I du Pont de Nemours and Company, priority 2009, dated 2015)
